Measurements taken from publication PMC11151825 (RSC Chemical Biology, 2024).
Like-named read-outs stand apart in the source and are kept apart here. Square brackets hold non-standard residues; d marks the D form. Peptide text beside a SMILES is read from it. Abu = CC[C@H](N)C(=O)O

Tests used:
[1] = the molecule shown is the open-chain precursor, 3 steps
[2] = the molecule shown is the open-chain precursor
[3] = the molecule shown is the open-chain precursor; remark: listed apart in the source
human C5aR1 = human C5aR1 (Homo sapiens, UniProt P21730); assay: cell-based; details: SEM
Sequence of human C5aR1 (P21730 whole entry): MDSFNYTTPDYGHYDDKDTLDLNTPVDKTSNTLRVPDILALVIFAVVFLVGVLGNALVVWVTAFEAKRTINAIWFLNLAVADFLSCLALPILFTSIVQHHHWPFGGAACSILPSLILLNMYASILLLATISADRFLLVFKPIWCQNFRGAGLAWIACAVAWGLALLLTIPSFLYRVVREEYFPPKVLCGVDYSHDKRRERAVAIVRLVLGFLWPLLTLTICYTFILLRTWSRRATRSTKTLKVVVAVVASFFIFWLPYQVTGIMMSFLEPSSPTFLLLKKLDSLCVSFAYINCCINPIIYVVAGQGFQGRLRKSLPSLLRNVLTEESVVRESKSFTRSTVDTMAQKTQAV

Compound | ring closure, conversion by HPLC (% (HPLC peak area)) [2] | ring closure, conversion by HPLC (% (HPLC peak area)) [3] | further results
H-GCYFQNCPRGVCGQTCVGGTCNTPGCTCSWPVCT-OH (epitope Cys2-Cys7 disulfide; scaffold I-IV, II-V, III-VI) |  |  | ring closure, yield over several steps ([1]; 102-membered ring): 1.7%
cyclo-(CGQTCVGGTCNTPGCTCSWPVCTRNGLPV) (6 free Cys) | 23.5 | 26.1 | 
H-VCTRNGLPVCGQTCVGGTCNTPGCTCS-OH (6 free Cys) | 27 | 30.5 | 
H-VCGQTCVGGTCNTPGCTCSWPVCT-OH (6 free Cys) | 9.4 | 16.1 | 
CC(C)CC(NCCCC[C@@H]1NC(=O)[C@@H](Cc2c[nH]c3ccccc23)NC(=O)[C@H](Cc2ccccc2)NC(=O)[C@@H](NC(=O)[C@H](N)Cc2ccccc2)CSSC[C@@H](C(=O)N[C@H](C(=O)N[C@H](C(=O)N[C@H]2CSSC[C@@H]3NC(=O)CNC(=O)[C@@H]4CCCN4C(=O)[C@H]([C@@H](C)O)NC(=O)[C@H](CC(N)=O)NC(=O)[C@@H]4CSSC[C@@H](C(=O)N[C@H](C(=O)O)[C@@H](C)O)NC(=O)[C@H](C(C)C)NC(=O)[C@@H]5CCCN5C(=O)[C@H](Cc5c[nH]c6ccccc56)NC(=O)[C@H](CO)NC(=O)[C@H](CSSC[C@H](NC(=O)[C@H]([C@@H](C)O)NC(=O)[C@H](CCC(N)=O)NC(=O)CNC2=O)C(=O)N[C@@H](C(C)C)C(=O)NCC(=O)NCC(=O)N[C@@H]([C@@H](C)O)C(=O)N4)NC(=O)[C@H]([C@@H](C)O)NC3=O)C(C)C)[C@@H](C)O)NC(=O)[C@H]([C@@H](C)O)NC1=O)=C1C(=O)CC(C)(C)CC1=O |  |  | ring closure, yield over several steps ([1]; 96-membered ring): 16.1%
CC[C@H](C)[C@H](NC(=O)[C@H](CCCNC(=N)N)NC(=O)[C@H](CCCNC(=N)N)NC(=O)[C@H](CC(C)C)NC(=O)[C@H](Cc1ccccc1)NC(=O)CNC(=O)CNC(=O)[C@@H](N)Cc1ccc(O)cc1)C(=O)N[C@@H](CCCNC(=N)N)C(=O)N1CCC[C@H]1C(=O)N[C@@H](CCCCNC(CC(C)C)=C1C(=O)CC(C)(C)CC1=O)C(=O)N[C@@H](CC(C)C)C(=O)N[C@@H](CCCCNC(CC(C)C)=C1C(=O)CC(C)(C)CC1=O)C(=O)N[C@H](C(=O)N[C@H]1CSSC[C@@H]2NC(=O)[C@H]([C@@H](C)O)NC(=O)CNC(=O)CNC(=O)[C@H](C(C)C)NC(=O)[C@@H]3CSSC[C@@H](C(=O)N[C@@H](CO)C(=O)O)NC(=O)[C@H]([C@@H](C)O)NC(=O)[C@H](CSSC[C@H](NC(=O)[C@H](C(C)C)NC(=O)[C@@H]4CCCN4C(=O)[C@H](CC(C)C)NC(=O)CNC(=O)[C@H](CC(N)=O)NC(=O)[C@H](CCCNC(=N)N)NC(=O)[C@H]([C@@H](C)O)NC1=O)C(=O)NCC(=O)N[C@@H](CCC(N)=O)C(=O)N[C@@H]([C@@H](C)O)C(=O)N3)NC(=O)CNC(=O)[C@@H]1CCCN1C(=O)[C@H]([C@@H](C)O)NC(=O)[C@H](CC(N)=O)NC2=O)C(C)C |  |  | ring closure, yield over several steps ([1]; 120-membered ring): 7.1%
H-GCTCSWPVCTRNGLPVCGQTCVGGTCN-OH (6 free Cys) | 2.6 | 9.5 | 
H-VCGETCVGGTCNTPGCTCSWPVCT-OH (6 free Cys) | 15.4 | 23.4 | 
CC[C@H](C)[C@H](NC(=O)[C@H](CCCNC(=N)N)NC(=O)[C@H](CCCNC(=N)N)NC(=O)[C@H](CC(C)C)NC(=O)[C@H](Cc1ccccc1)NC(=O)CNC(=O)CNC(=O)[C@@H](N)Cc1ccc(O)cc1)C(=O)N[C@@H](CCCNC(=N)N)C(=O)N1CCC[C@H]1C(=O)N[C@@H](CCCCNC(CC(C)C)=C1C(=O)CC(C)(C)CC1=O)C(=O)N[C@@H](CC(C)C)C(=O)N[C@@H](CCCCNC(CC(C)C)=C1C(=O)CC(C)(C)CC1=O)C(=O)NCC(=O)N[C@H]1CSSC[C@@H]2NC(=O)[C@H](C(C)C)NC(=O)[C@@H]3CCCN3C(=O)[C@H](CC(C)C)NC(=O)CNC(=O)[C@H](CC(N)=O)NC(=O)[C@H](CCCNC(=N)N)NC(=O)[C@H]([C@@H](C)O)NC(=O)[C@@H]3CSSC[C@@H](C(=O)N[C@@H](CC(N)=O)C(=O)O)NC(=O)[C@H]([C@@H](C)O)NC(=O)CNC(=O)CNC(=O)[C@H](C(C)C)NC(=O)[C@H](CSSC[C@H](NC(=O)[C@H]([C@@H](C)O)NC1=O)C(=O)N[C@@H](CO)C(=O)N[C@@H](Cc1c[nH]c4ccccc14)C(=O)N1CCC[C@H]1C(=O)N[C@@H](C(C)C)C(=O)N3)NC(=O)[C@H]([C@@H](C)O)NC(=O)[C@H](CCC(N)=O)NC(=O)CNC2=O |  |  | ring closure, yield over several steps ([1]; 120-membered ring): 11.2%
CC[C@H](C)[C@@H]1NC(=O)[C@@H]2CCCN2C(=O)[C@@H]2CCCN2C(=O)[C@H]([C@@H](C)CC)NC(=O)[C@H](CO)NC(=O)[C@H](CCCCNC(CC(C)C)=C2C(=O)CC(C)(C)CC2=O)NC(=O)[C@H]([C@@H](C)O)NC(=O)[C@@H](NC(=O)CN)CSSC[C@@H](C(=O)NCC(=O)N[C@H](C(=O)N[C@H]2CSSC[C@@H]3NC(=O)CNC(=O)[C@@H]4CCCN4C(=O)[C@H]([C@@H](C)O)NC(=O)[C@H](CC(N)=O)NC(=O)[C@@H]4CSSC[C@@H](C(=O)N[C@H](C(=O)O)[C@@H](C)O)NC(=O)[C@H](C(C)C)NC(=O)[C@@H]5CCCN5C(=O)[C@H](Cc5c[nH]c6ccccc56)NC(=O)[C@H](CO)NC(=O)[C@H](CSSC[C@H](NC(=O)[C@H]([C@@H](C)O)NC(=O)[C@H](CCC(N)=O)NC(=O)CNC2=O)C(=O)N[C@@H](C(C)C)C(=O)NCC(=O)NCC(=O)N[C@@H]([C@@H](C)O)C(=O)N4)NC(=O)[C@H]([C@@H](C)O)NC3=O)C(C)C)NC1=O |  |  | ring closure, yield over several steps ([1]; 105-membered ring): 18.7%
CC(C)CC(NCCCC[C@H](NC(=O)[C@@H](N)Cc1ccccc1)C(=O)N1CCC[C@H]1C(=O)N[C@@H](CC(C)C)C(=O)N[C@@H](C)C(=O)N[C@@H](C)C(=O)N[C@H](C)C(=O)N[C@@H](CCCNC(=N)N)C(=O)N[C@H](C(=O)N[C@H]1CSSC[C@@H]2NC(=O)CNC(=O)[C@@H]3CCCN3C(=O)[C@H]([C@@H](C)O)NC(=O)[C@H](CC(N)=O)NC(=O)[C@@H]3CSSC[C@@H](C(=O)N[C@H](C(=O)O)[C@@H](C)O)NC(=O)[C@H](C(C)C)NC(=O)[C@@H]4CCCN4C(=O)[C@H](Cc4c[nH]c5ccccc45)NC(=O)[C@H](CO)NC(=O)[C@H](CSSC[C@H](NC(=O)[C@H]([C@@H](C)O)NC(=O)[C@H](CCC(N)=O)NC(=O)CNC1=O)C(=O)N[C@@H](C(C)C)C(=O)NCC(=O)NCC(=O)N[C@@H]([C@@H](C)O)C(=O)N3)NC(=O)[C@H]([C@@H](C)O)NC2=O)C(C)C)=C1C(=O)CC(C)(C)CC1=O |  |  | ring closure, yield over several steps ([1]; 96-membered ring): 22%
H-GCYIQNCPLGVCGQTCVGGTCNTPGCTCSWPVCT-OH (epitope Cys2-Cys7 disulfide; scaffold I-IV, II-V, III-VI) |  |  | ring closure, yield over several steps ([1]; 102-membered ring): 10.9%
CC[C@H](NC(=O)[C@H](C)NC(=O)[C@H](CC(C)C)NC(=O)[C@@H]1CCCN1C(=O)[C@H](CCCCN)NC(=O)[C@@H](N)Cc1ccccc1)C(=O)N[C@H](C)C(=O)N[C@@H](CCCNC(=N)N)C(=O)O [BM221] (H-FKPLA[Abu][dA]R-OH) |  |  | EC50 (human C5aR1): 2.8 ± 0.9 nM
H-RNGLPVCGQTCVGGTCNTPGCTCSWPVCT-OH (disulfides I-IV, II-V, III-VI) |  |  | ring closure, yield over several steps ([1]; 87-membered ring): 24.8%
H-VCGATCVGGTCNTPGCTCSWPVCT-OH (6 free Cys) | 3.8 | 4.6 | 
CC[C@H](NC(=O)[C@H](C)NC(=O)[C@H](CC(C)C)NC(=O)[C@@H]1CCCN1C(=O)[C@H](CCCCNC(CC(C)C)=C1C(=O)CC(C)(C)CC1=O)NC(=O)[C@@H](N)Cc1ccccc1)C(=O)N[C@H](C)C(=O)N[C@@H](CCCNC(=N)N)C(=O)N[C@H](C(=O)N[C@H]1CSSC[C@@H]2NC(=O)CNC(=O)[C@@H]3CCCN3C(=O)[C@H]([C@@H](C)O)NC(=O)[C@H](CC(N)=O)NC(=O)[C@@H]3CSSC[C@@H](C(=O)N[C@H](C(=O)O)[C@@H](C)O)NC(=O)[C@H](C(C)C)NC(=O)[C@@H]4CCCN4C(=O)[C@H](Cc4c[nH]c5ccccc45)NC(=O)[C@H](CO)NC(=O)[C@H](CSSC[C@H](NC(=O)[C@H]([C@@H](C)O)NC(=O)[C@H](CCC(N)=O)NC(=O)CNC1=O)C(=O)N[C@@H](C(C)C)C(=O)NCC(=O)NCC(=O)N[C@@H]([C@@H](C)O)C(=O)N3)NC(=O)[C@H]([C@@H](C)O)NC2=O)C(C)C |  |  | ring closure, yield over several steps ([1]; 96-membered ring): 1.1%
H-RNGLPVCGETCVGGTCNTPGCTCSWPVCT-OH (disulfides I-IV, II-V, III-VI) |  |  | ring closure, yield over several steps ([1]; 87-membered ring): 10.6%
H-TCNTPGCTCSWPVCTRNGLPVCGQTCV-OH (6 free Cys) | 3.7 | 8.1 | 
CC[C@H](C)[C@H](NC(=O)[C@H](CCCNC(=N)N)NC(=O)[C@H](CCCNC(=N)N)NC(=O)[C@H](CC(C)C)NC(=O)[C@H](Cc1ccccc1)NC(=O)CNC(=O)CNC(=O)[C@@H](N)Cc1ccc(O)cc1)C(=O)N[C@@H](CCCNC(=N)N)C(=O)N1CCC[C@H]1C(=O)N[C@@H](CCCCNC(CC(C)C)=C1C(=O)CC(C)(C)CC1=O)C(=O)N[C@@H](CC(C)C)C(=O)N[C@@H](CCCCNC(CC(C)C)=C1C(=O)CC(C)(C)CC1=O)C(=O)N[C@H](C(=O)N[C@H]1CSSC[C@@H]2NC(=O)CNC(=O)[C@@H]3CCCN3C(=O)[C@H]([C@@H](C)O)NC(=O)[C@H](CC(N)=O)NC(=O)[C@@H]3CSSC[C@@H](C(=O)N[C@H](C(=O)O)[C@@H](C)O)NC(=O)[C@H](C(C)C)NC(=O)[C@@H]4CCCN4C(=O)[C@H](Cc4c[nH]c5ccccc45)NC(=O)[C@H](CO)NC(=O)[C@H](CSSC[C@H](NC(=O)[C@H]([C@@H](C)O)NC(=O)[C@H](CCC(N)=O)NC(=O)CNC1=O)C(=O)N[C@@H](C(C)C)C(=O)NCC(=O)NCC(=O)N[C@@H]([C@@H](C)O)C(=O)N3)NC(=O)[C@H]([C@@H](C)O)NC2=O)C(C)C |  |  | ring closure, yield over several steps ([1]; 111-membered ring): 17.4%
